The target of experiment [1] is Brachypodium distachyon BdDHS1a, SEQ ID NO: 1, recombinant (Brachypodium distachyon, UniProt I1GSB3). Put plainly: DHS activity: kinetics and effector inhibition. An excerpt: (§1) To examine their functional properties, the recombinant DHS enzymes of Brachypodium were produced and characterized in vitro.
(§2) As recent studies have shown that plant DHS enzymes are feedback-inhibited by multiple effector molecules^15, 16, we tested the effect of AAAs and another 14 related metabolites, including various intermediates of the shikimate pathway and the pathways downstream of AAAs, on Brachypodium DHS enzymes.
(§3) The DHS assay for UHPLC-MS quantification was set up using the same settings as described in the previous paragraph for the UV-based DHS assay, which guaranteed at least 10 minutes of reaction linearity. After a 10-minute incubation, 20 μL of the reactions (out of a total volume of 50 μL) were mixed into 80 μL of methanol, vortexed and transferred to vials for injection. Analysis of DAHP by UHPLC-MS was conducted using the same chromatographic settings as described for the UHPLC-MS analysis of soluble metabolites and compared with an authentic DAHP standard (Sta. Cruz biotechnology, cat. no. sc-216432).

The target of experiment [2] is Brachypodium distachyon BdDHS1b, SEQ ID NO: 3, recombinant (Brachypodium distachyon, UniProt I1H4W3). Put plainly: DHS activity: kinetics and effector inhibition. It counts as biochemical.
Sequence of Brachypodium distachyon BdDHS1b, SEQ ID NO: 3, recombinant (I1H4W3 37-542): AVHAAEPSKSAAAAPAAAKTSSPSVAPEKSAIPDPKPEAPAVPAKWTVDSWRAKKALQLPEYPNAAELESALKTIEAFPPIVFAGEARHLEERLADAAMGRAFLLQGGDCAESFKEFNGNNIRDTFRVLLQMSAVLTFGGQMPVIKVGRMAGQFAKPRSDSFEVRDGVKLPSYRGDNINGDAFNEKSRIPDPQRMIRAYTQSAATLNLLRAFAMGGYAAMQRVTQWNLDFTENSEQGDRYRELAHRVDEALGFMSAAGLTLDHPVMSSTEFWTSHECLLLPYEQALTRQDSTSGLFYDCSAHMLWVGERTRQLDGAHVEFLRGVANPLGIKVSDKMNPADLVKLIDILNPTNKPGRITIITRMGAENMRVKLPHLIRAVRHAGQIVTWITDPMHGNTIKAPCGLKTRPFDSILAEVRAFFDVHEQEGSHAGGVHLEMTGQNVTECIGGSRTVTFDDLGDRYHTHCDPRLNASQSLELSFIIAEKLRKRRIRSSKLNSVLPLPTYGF
Description: as §1, §2, §3

Experiment [3] deals with Brachypodium distachyon BdDHS2, SEQ ID NO: 5, recombinant (Brachypodium distachyon, UniProt I1I809). The experiment is described as follows: DHS activity: kinetics and effector inhibition. The class given is biochemical.
Sequence of Brachypodium distachyon BdDHS2, SEQ ID NO: 5, recombinant (I1I809 31-503): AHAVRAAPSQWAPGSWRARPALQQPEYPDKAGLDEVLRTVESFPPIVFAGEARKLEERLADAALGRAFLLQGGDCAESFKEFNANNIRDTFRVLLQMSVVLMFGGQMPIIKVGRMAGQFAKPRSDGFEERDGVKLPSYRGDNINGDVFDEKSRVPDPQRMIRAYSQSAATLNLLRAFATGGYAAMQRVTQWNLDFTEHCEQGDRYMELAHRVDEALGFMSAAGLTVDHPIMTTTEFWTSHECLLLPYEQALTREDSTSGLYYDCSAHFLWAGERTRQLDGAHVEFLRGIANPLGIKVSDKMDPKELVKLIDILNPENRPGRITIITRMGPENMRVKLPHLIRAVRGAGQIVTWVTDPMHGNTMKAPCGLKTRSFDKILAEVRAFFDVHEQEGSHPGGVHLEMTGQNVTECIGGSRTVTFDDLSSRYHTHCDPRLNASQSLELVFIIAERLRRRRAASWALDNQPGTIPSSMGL
Description: as §1, §2, §3

Experiment [4] concerns grass DHS enzymes. The experiment is described as follows: DHS activity: effector inhibition. It counts as biochemical. As to conditions: 0.5 mM (FIGS. 4, 15, 17). The method, then:
as §2, §3

Experiment [5] has as its system recombinant Sorghum DHS enzymes. Put plainly: DHS activity: effector inhibition. The class given is biochemical, Sorghum bicolor. The conditions noted are these: 0.5 mM (FIG. 17). The protocol: (§4) In contrast, BdDHS1b was not inhibited by arogenate even up to 2.5 mM. In fact, DHS1b activity increased in the presence of high concentrations of arogenate (FIG. 4F), likely due to high concentrations of contaminant NaCl present in the arogenate preparation (FIG. 16). Under acidic conditions, arogenate is known to undergo a spontaneous dehydration and decarboxylation into […]. […] Like in Brachypodium DHS enzymes, 0.5 mM arogenate inhibited SbDHS1a and SbDHS2 at ˜50% and ˜40%, respectively, but had no effect on SbDHS1b.

In experiment [6] the target is T1, Sorghum bicolor SbDHSnc, SEQ ID NO: 15, recombinant (Sorghum bicolor, UniProt C5WRG8).
T1 construct: synthesized into pET28a, E. coli KRX
T1 sequence (C5WRG8 36-499): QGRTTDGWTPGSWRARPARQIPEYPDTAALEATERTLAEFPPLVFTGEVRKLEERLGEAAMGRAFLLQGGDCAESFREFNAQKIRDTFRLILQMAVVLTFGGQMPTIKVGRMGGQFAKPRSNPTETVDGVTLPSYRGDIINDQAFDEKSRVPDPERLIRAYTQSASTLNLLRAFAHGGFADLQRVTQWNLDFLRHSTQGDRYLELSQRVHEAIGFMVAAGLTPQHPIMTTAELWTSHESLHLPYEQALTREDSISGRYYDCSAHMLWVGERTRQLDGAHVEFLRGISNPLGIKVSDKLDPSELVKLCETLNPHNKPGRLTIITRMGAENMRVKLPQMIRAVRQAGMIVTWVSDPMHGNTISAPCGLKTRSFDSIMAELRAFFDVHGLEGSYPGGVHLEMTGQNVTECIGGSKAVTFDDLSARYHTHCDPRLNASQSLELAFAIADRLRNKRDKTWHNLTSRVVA
Put plainly: DHS activity: effector inhibition. It counts as biochemical. As to conditions: effector 0.5 mM. The protocol:
as §4

Experiment [7] has as its target T2, Sorghum bicolor SbDHS2, SEQ ID NO: 13, recombinant (Sorghum bicolor, UniProt C5YJQ4).
T2 construct: pET28a (NdeI/BamHI), E. coli KRX
The experiment is described as follows: DHS activity: effector inhibition. The class given is biochemical. As to conditions: effector 0.5 mM. The method, then: as §4

Experiment [8] deals with Nicotiana benthamiana leaves. The experiment is described as follows: Transient expression of Brachypodium DHS in Nicotiana benthamiana leaves (AtRbcS3B promoter), UHPLC-MS. The class given is in vivo. The conditions noted are these: three days after transient expression. The protocol:
Agrobacterium tumefaciens strain GV3101 transformed with the plant expression constructs were grown at 28° C. for 24 to 36 hours in 10 mL of LB liquid media containing the corresponding antibiotics. The saturated cultures were spun down at 3,000 g for 5 minutes at room temperature and washed twice with 3 mL of induction media (IM; 10 mM MES [2-(N-morpholino) ethanesulfonic acid] buffer pH 5.6, 0.5% glucose, 2 mM NaH2PO4, 20 mM NH4Cl, 1 mM MgSO4, 2 mM KCl, 0.1 mM CaCl2), 0.01 mM FeSO4, and 0.2 mM acetosyringone). After washing, bacteria cultures were incubated in IM for 2 to 3 hours at room temperature in the dark, pelleted at 3000 g for 5 minutes, and resuspended into 3 mL of 10 mM MES buffer pH 5.6 with 0.2 mM acetosyringone. OD600nm was adjusted to a final density of 0.25 units for pAGM4673::TyrA (FIG. 3F) and pICH47822::DHS (FIG. 5A) infiltration, or 0.5 units for pAGM4673::TyrA-DHS co-expression constructs (FIG. 5B) using 10 mM MES buffer pH 5.6 with 0.2 mM acetosyringone. For infiltration of pICH47822::DHS constructs, the Agrobacterium suspensions were adjusted to OD600nm=0.5 and mixed with an equal volume of a suspension of an Agrobacterium clone transformed with pICH4780::p19 under control of the Arabidopsis ubiquitin ligase promoter adjusted to OD600nm=0.5, resulting in a final mixture of 0.25 OD600nm units for each construct. […] Nicotiana benthamiana plants of around 4-weeks-old were infiltrated close to the end of the light period into four different spots per plant, distributed into two leaves at two infiltrations per leaf, with each individual spot corresponding with a different construct/treatment. In total, each construct was infiltrated as 5 or 6 independent replicates into different plants following a randomized pattern. Samples consisting of the infiltrated leaf limbs, without the main veins, were harvested at ˜72 hours post infiltration and subjected to HPLC or UHPLC-MS analysis (see details below).
Around 30-40 mg of pulverized frozen plant tissue were resuspended into 400 μL of chloroform:methanol (1:2) for ˜1 hour with regular vortexing, followed by centrifugation at 20,000 g for 5 minutes at room temperature. The whole supernatant was transferred to a fresh tube, mixed with 125 μL of chloroform, 300 μL of water, and spun down at 15,000 g for 5 minutes for phase separation. The upper, aqueous phase was recovered and dried down for 4 hours to overnight in a speed-vac at 40° C. The dried pellets were resuspended into 100 μL of methanol 80%, spun down at 20,000 g for 5 minutes, and the supernatant transferred to vials for injection. All reagents used for the extraction were UHPLC-MS grade.
Aromatic amino acids and shikimate were detected using a Vanquish Horizon Binary UHPLC (Thermo Scientific) coupled to a Q Exactive mass spectrometer (Thermo Scientific). Two microliters of the sample were analyzed using a InfinityLab Poroshell 120 HILIC-Z column (150×2.1 mm, 2.7-μm particle size; Agilent) in a gradient of 5 mM ammonium acetate/0.2% acetic acid buffer in water (solvent A) and 5 mM ammonium acetate/0.2% acetic acid buffer in 95% acetonitrile (solvent B) at a flow rate of 0.45 mL/min and column temperature of 40° C. The phase B gradient was: 0-2 min, 94%; 2-9 min, 94-88%; 9-19 min, 88-71%; 19-20 min, 71-20%, 20-21.5 min, 20%; 21.5-22 min, 20-94%; 22-25 min, 94%. All chemicals used to prepare the mobile phases were LC-MS grade. Full MS spectra were recorded between 2 and 19 minutes using full scan in negative mode, under the following parameters: sheath gas flow rate, 55; auxiliary gas flow rate, 20; sweep gas flow rate, 2; spray voltage, 3 kV; capillary temperature, 400° C.; S-lens RF level, 50; resolution, 70,000; AGC target 3×10^6, maximum scan time 100 ms; scan range 70-1050 m/z. Spectral data were integrated manually using Xcalibur 3.0. For ^13C labeled plant samples, ^13C-isotopologues were detected based on a mass increase of 1.00335 atomic mass units for each ^13C atom. […]

Experiment [9] in a line: DHS activity with combinations of effectors. As to conditions: 0.15 mM each effector (FIG. 19). It counts as biochemical. The method, then:
DHS effector molecules can have synergistic effects when combined in vitro^51. To explore this possibility, we tested the impact of different combinations of tryptophan, tyrosine, arogenate and chorismate, at 0.15 mM each, on the activity of Brachypodium DHS enzymes.

Experiment [10] can be described thus: DHS inhibition by arogenate. As to conditions: FIG. 18. It counts as biochemical. The protocol:
as §3

Experiment [11] can be described thus: DHS inhibition by tryptophan. The class given is biochemical. The conditions noted are these: FIG. 18. The protocol: as §3
Experiment [12] deals with Nicotiana benthamiana leaves. The experiment is described as follows: Transient expression of DHS1b orthologs in Nicotiana benthamiana leaves, LCMS (FIG. 21). As to conditions: 72 hours post-infiltration; for effect on levels of aromatic amino acids and their precursor molecules: vs YPet. The class given is in vivo. The source says:
To determine whether the grass DHS1b gene encodes a deregulated DHS in other grass species besides Brachypodium distachyon, BdDHS1b orthologs from Oryza sativa (OsDHS1b) and Sorghum bicolor (SbDHS1b) were cloned into the Golden Gate plant expression vector pICH47822 under control of the RuBisCO small subunit 3B promoter from Arabidopsis thaliana.^52 A 3× human influenza hemagglutinin tag was fused in frame to the C-terminus of the DHS genes to confirm the production of heterologous DHS protein.
Agrobacterium tumefaciens (strain GV3101) clones transformed with the OsDHS1b and SbDHS1b plant expression constructs were infiltrated into the leaves of Nicotiana benthamiana side-by-side with Agrobacterium clones expressing BdDHS1a, BdDHS1b, and the fluorescent protein YPet (negative control). The levels of phenylalanine, tyrosine, tryptophan, and three of their biosynthetic intermediates (shikimate, prephenate, and arogenate) were determined at 72 hours post-infiltration by liquid chromatography coupled to mass spectrometry (LCMS). […] On average, expression of BdDHS1b or OsDHS1b increased phenylalanine, tyrosine, and shikimate levels by 5 to 20-times compared to the YPet negative control (FIG. 21), whereas prephenate and arogenate rose to ˜100-times the control (FIG. 21). […] Based on these findings, BdDHS1b and OsDHS1b, but not SbDHS1b, encode DHS enzymes that can boost the accumulation of aromatic amino acids in planta upon heterologous expression.

Consider 10 molecules from patent publication US20250115926A1, “DEREGULATED DHS AND TYRA ENZYMES OF GRASSES ENABLE EFFICIENT PRODUCTION OF BOTH TYROSINE AND PHENYLALANINE” (Wisconsin Alumni Research Foundation, priority 2023, published 2025).

Sequence of Brachypodium distachyon BdDHS1a, SEQ ID NO: 1, recombinant (I1GSB3 46-537): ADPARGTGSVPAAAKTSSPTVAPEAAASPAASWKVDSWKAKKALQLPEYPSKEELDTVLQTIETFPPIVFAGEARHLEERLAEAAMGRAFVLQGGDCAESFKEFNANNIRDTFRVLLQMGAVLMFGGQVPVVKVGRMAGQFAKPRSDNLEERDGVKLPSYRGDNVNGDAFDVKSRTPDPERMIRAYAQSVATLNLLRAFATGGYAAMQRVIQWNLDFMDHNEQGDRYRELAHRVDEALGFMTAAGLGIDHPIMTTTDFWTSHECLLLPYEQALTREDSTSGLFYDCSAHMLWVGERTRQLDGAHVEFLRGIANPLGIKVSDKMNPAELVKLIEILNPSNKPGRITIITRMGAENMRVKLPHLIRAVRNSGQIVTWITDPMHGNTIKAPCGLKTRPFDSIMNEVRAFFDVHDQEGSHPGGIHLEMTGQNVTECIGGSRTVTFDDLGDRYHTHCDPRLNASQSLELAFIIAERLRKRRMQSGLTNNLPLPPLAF
T2 sequence (C5YJQ4 42-508): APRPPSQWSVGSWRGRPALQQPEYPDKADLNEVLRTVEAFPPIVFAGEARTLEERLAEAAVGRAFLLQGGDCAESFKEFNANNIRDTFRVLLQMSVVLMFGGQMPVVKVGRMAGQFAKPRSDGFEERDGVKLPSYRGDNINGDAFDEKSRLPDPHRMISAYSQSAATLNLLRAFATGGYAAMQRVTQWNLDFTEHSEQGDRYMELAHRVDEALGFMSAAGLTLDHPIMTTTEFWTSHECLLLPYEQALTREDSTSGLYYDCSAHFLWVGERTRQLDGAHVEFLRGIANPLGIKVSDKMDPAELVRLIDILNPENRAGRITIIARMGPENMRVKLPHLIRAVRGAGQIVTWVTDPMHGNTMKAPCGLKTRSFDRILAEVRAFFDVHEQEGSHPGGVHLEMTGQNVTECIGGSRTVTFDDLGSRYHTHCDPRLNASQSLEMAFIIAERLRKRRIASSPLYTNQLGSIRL

Take `O=C[C@H](O)[C@H](O)COP(=O)(O)O` [E4P, erythrose 4-phosphate]: the “H Coefficient (only E4P)” value in experiment [1] (1.5 mM PEP) came to 1.8; in experiment [2] (1.5 mM PEP), 2.1; in [3] (1.5 mM PEP) it was 1.5. The “kcat/EC50 (E4P)” value in [2] was determined as 28300 M⁻¹ s⁻¹. For the same molecule, in experiment [2] (1.5 mM PEP, 37° C., read-out: EC50 (E4P) (K0.5)), the Km was 400 µM.

Take `O=C(O)/C=C/c1ccc(O)c(O)c1` [caffeic acid]: the “effect on grass DHS at 0.5 mM” value in [4] is listed as “little effect”.

Regarding `C=C(O[C@@H]1C=C(C(=O)O)C=C[C@H]1O)C(=O)O` [chorismate], the “effect on grass DHS at 0.5 mM” value in [4] is given as “little effect”.

As to `O=C(O)Cc1cc(O)ccc1O` [homogentisic acid], the “effect on grass DHS at 0.5 mM” value in [4] is “little effect”.

Broadly, the inhibition is the change of the read-out against control, counted positive when it falls. In the case of `N[C@@H](Cc1ccccc1)C(=O)O` [phenylalanine], the “effect on grass DHS at 0.5 mM” value in [4] is “did not cause significant effects”. Moreover, the “inhibition at 0.5 mM” value in [5] is on record as “no strong inhibition”.

In general, IC50 refers to the midpoint of a concentration-inhibition curve. `N[C@@H](Cc1c[nH]c2ccccc12)C(=O)O` [tryptophan]: the inhibition at 500 µM in experiment [6] and in experiment [7] was 40 to 50% in each case. For the same molecule, the effect of tryptophan result in experiment [1] (0.5 mM (FIG. 4C)) and in experiment [2] (0.5 mM (FIG. 4C)) was “no effect” throughout. Moreover, the 50% inhibitory concentration (IC50) in experiment [1] (IC50 (tryptophan), 1.5 mM PEP, 2 mM E4P) was > 500 µM; in [2] (read-out: IC50 (tryptophan)), > 500 µM; in experiment [3] (1.5 mM PEP, 2 mM E4P, read-out: IC50 (tryptophan)) it was 120 µM. Further, the “mode of inhibition with respect to E4P” value in experiment [3] (FIG. 18) is “uncompetitive inhibition kinetics”. In [3] (FIG. 18), the “mode of inhibition with respect to PEP” value is on record as “non-competitive inhibition”.

Regarding “BdDHS1a: DHS1a enzyme of Brachypodium distachyon, SEQ ID NO: 1”, in [8], the “phenylalanine accumulation compared to tdTomato control” value was “did not significantly alter”, the “shikimate accumulation compared to tdTomato control” value is “did not significantly alter”, the “tryptophan accumulation compared to tdTomato control” value is recorded as “did not significantly alter” and the “tyrosine accumulation compared to tdTomato control” value was “did not significantly alter”. Further, in [9], the “impact of effector combinations on DHS activity” value is given as “additional inhibition”.

With “BdDHS2: DHS2 enzyme of Brachypodium distachyon, SEQ ID NO: 5”, in experiment [8], the “phenylalanine accumulation compared to tdTomato control” value is on record as “did not significantly alter”, the “shikimate accumulation compared to tdTomato control” value is “did not significantly alter”, the “tryptophan accumulation compared to tdTomato control” value was “did not significantly alter” and the “tyrosine accumulation compared to tdTomato control” value is “did not significantly alter”. In experiment [10], the “inhibition mechanism of arogenate for PEP” value is listed as “mixed inhibition” and the “inhibition mechanism of arogenate in respect to E4P” value is “uncompetitive inhibition”. Also, in experiment [9], the “impact of effector combinations on DHS activity” value was “additional inhibition”. For the same molecule, in experiment [11], the “inhibition mechanism of tryptophan in respect to E4P” value was “uncompetitive inhibition”.

In the case of “OsDHS1b: DHS1b enzyme of Oryza sativa, SEQ ID NO: 19”, in [12], the “prephenate and arogenate relative to the control” value is ~100 times; the “effect on levels of aromatic amino acids and their precursor molecules” value is on record as “increased levels of all measured metabolites except for tryptophan”.

“SbDHS1b: DHS1b enzyme of Sorghum bicolor, SEQ ID NO: 11”: the “effect on levels of aromatic amino acids and their precursor molecules” value in [12] was “little or no significant effect”.
